Data reported in ChEMBL document CHEMBL4680352, “Rational design and synthesis of 6-aryl-6H-benzo[c]chromenes as non-steroidal progesterone receptor antagonists for use against cancers” (Bioorg Med Chem, 2021).

How the values were obtained:
MDA-MB-231 [1] = experiment: Antiproliferative activity against human MDA-MB-231 cells assessed as inhibition of cell viability at 20 uM after 72 hrs by CCK-8 assay relative to control; assay type: functional
MCF7 [2] = experiment: Antiproliferative activity against human MCF7 cells assessed as inhibition of cell viability at 20 uM after 72 hrs by CCK-8 assay relative to control; assay type: functional
A549 [3] = experiment: Antiproliferative activity against human A549 cells assessed as inhibition of cell viability at 20 uM after 72 hrs by CCK-8 assay relative to control; assay type: functional
BGC-823 [4] = experiment: Antiproliferative activity against human BGC-823 cells assessed as inhibition of cell viability at 20 uM after 72 hrs by CCK-8 assay relative to control; assay type: functional
PC-3 [5] = experiment: Antiproliferative activity against human PC-3 cells assessed as inhibition of cell viability at 20 uM after 72 hrs by CCK-8 assay relative to control; assay type: functional
BGC-823 [6] = experiment: Antiproliferative activity against human BGC-823 cells assessed as inhibition of cell viability after 72 hrs by CCK-8 assay; assay type: functional, cell-based; details: BGC-823, 72 h
PC-3 [7] = experiment: Antiproliferative activity against human PC-3 cells assessed as inhibition of cell viability after 72 hrs by CCK-8 assay; assay type: functional, cell-based; details: PC-3, 72 h
MDA-MB-231 [8] = experiment: Antiproliferative activity against human MDA-MB-231 cells assessed as inhibition of cell viability after 72 hrs by CCK-8 assay; assay type: functional, cell-based; details: MDA-MB-231, 72 h
MCF-10A = experiment: Cytotoxicity against human MCF-10A cells assessed as inhibition of cell viability after 72 hrs by CCK-8 assay; assay type: cell-based
MCF7 [9] = experiment: Antiproliferative activity against human MCF7 cells assessed as inhibition of cell viability after 72 hrs by CCK-8 assay; assay type: functional, cell-based; details: MCF7, 72 h
[10] = Selectivity index, ratio of IC50 for human MCF-10A cells to IC50 for human MCF-7 cells
A549 [11] = experiment: Antiproliferative activity against human A549 cells assessed as inhibition of cell viability after 72 hrs by CCK-8 assay; assay type: functional, cell-based; details: A549, 72 h

Structure (SMILES) | inhibition at 20 µM (MDA-MB-231 [1]) [%] | inhibition at 20 µM (MCF7 [2]) [%] | inhibition at 20 µM (A549 [3]) [%] | inhibition at 20 µM (BGC-823 [4]) [%] | inhibition at 20 µM (PC-3 [5]) [%] | IC50 (BGC-823 [6]) [µM] | IC50 (PC-3 [7]) [µM] | IC50 (MDA-MB-231 [8]) [µM] | IC50 (MCF-10A) [µM] | IC50 (MCF7 [9]) [µM] | Ratio IC50 [10] | IC50 (A549 [11]) [µM]
CCOc1ccc(C2Oc3ccccc3-c3cc(OC)ccc32)cc1 (stereo unspecified) | 28.3 | 41.1 | 40.5 | 26.6 | 45 |  |  |  |  |  |  | 
COc1ccc2c(c1)-c1ccccc1OC2c1ccccc1C (stereo unspecified) | 59.8 | 69.7 | 60.9 | 64.2 | 66 | 8.52 | 9.62 | 7.41 | 44.6 | 9.29 | 4.8 | 8.54
COc1ccc2c(c1)-c1ccccc1OC2c1ccc(O[Si](C)(C)C(C)(C)C)cc1 (stereo unspecified) | 31 | 31.4 | 31.2 | 25.5 | 36.5 |  |  |  |  |  |  | 
COc1ccc2c(c1)-c1ccccc1OC2c1ccccc1 (stereo unspecified) | 30.6 | 25.6 | 32 | 30.5 | 31.8 |  |  |  |  |  |  | 
COc1ccc(C2Oc3ccccc3-c3ccc(OC)cc32)cc1 (stereo unspecified) | 43.2 | 45.5 | 43.6 | 47.1 | 44.7 |  |  |  |  |  |  | 
COc1ccc2c(c1)-c1ccccc1OC2c1ccccc1OC (stereo unspecified) |  |  |  |  |  | 26.1 | 21.4 | 15.2 | 61.6 | 8.92 | 6.9 | 23.5
COc1ccc(C2Oc3cc(C)ccc3-c3ccccc32)cc1 (stereo unspecified) | 25.6 | 30.3 | 22.6 | 32.9 | 38.1 |  |  |  |  |  |  | 
COc1ccc2c(c1)-c1ccccc1OC2c1cccc(OC)c1OC (stereo unspecified) |  |  |  |  |  | 9.23 | 7.86 | 22.5 | 47.9 | 15.2 | 3.15 | 17
c1ccc(C2Oc3ccccc3-c3ccccc32)cc1 (stereo unspecified) | 27.2 | 25.3 | 23.8 | 18.8 | 19.2 |  |  |  |  |  |  | 
COc1ccc(C2Oc3ccc(C)cc3-c3ccccc32)cc1 (stereo unspecified) | 23.2 | 32.9 | 29.4 | 27.6 | 36.3 |  |  |  |  |  |  | 
COc1ccc(C2Oc3ccccc3-c3cc(OC)ccc32)cc1 (stereo unspecified) | 52.7 | 59.6 | 49.6 | 50.6 | 55.4 |  |  |  |  |  |  | 
c1ccc2c(c1)OC(c1cccc3ccccc13)c1ccccc1-2 (stereo unspecified) | 30.6 | 26.4 | 31.5 | 26.1 | 34 |  |  |  |  |  |  | 
COc1ccc(C2Oc3ccc(Br)cc3-c3ccccc32)cc1 (stereo unspecified) | 36.1 | 26.6 | 28.9 | 37.8 | 36.1 |  |  |  |  |  |  | 
COc1ccc(C2Oc3ccc(OC)cc3-c3ccccc32)cc1 (stereo unspecified) | 28.2 | 34.7 | 36.2 | 42.5 | 36.3 |  |  |  |  |  |  | 
Cc1ccc(C2Oc3ccccc3-c3ccccc32)cc1 (stereo unspecified) | 23.7 | 30.2 | 23.5 | 25 | 26 |  |  |  |  |  |  | 
COc1ccc2c(c1)-c1ccccc1OC2c1cccc(C)c1 (stereo unspecified) | 24.9 | 33.8 | 34.4 | 32 | 42.3 |  |  |  |  |  |  | 
COc1ccc(C2Oc3ccccc3-c3ccccc32)cc1 (stereo unspecified) | 21.2 | 34.4 | 29.9 | 34.1 | 37 |  |  |  |  |  |  | 
COc1ccc2c(c1)-c1ccccc1OC2c1ccc(Br)cc1 (stereo unspecified) | 31 | 40.5 | 38.8 | 24.1 | 43.9 |  |  |  |  |  |  | 
COc1cccc(C2Oc3ccccc3-c3cc(OC)ccc32)c1 (stereo unspecified) | 66.1 | 69.4 | 56.3 | 51.9 | 57 | 13.2 | 14.3 | 18.6 | 58.5 | 9.94 | 5.88 | 17
COc1cccc(C2Oc3ccccc3-c3cc(OC)c(OC)cc32)c1 (stereo unspecified) |  |  |  |  |  | 8.99 | 10.1 | 13.8 | 60.3 | 9.53 | 6.33 | 11.7
COc1ccc2c(c1)-c1ccccc1OC2c1ccc(C)cc1 (stereo unspecified) | 35.7 | 40.4 | 31.1 | 37.4 | 38.9 |  |  |  |  |  |  | 
COc1ccc2c(c1)-c1ccccc1OC2c1cccs1 (stereo unspecified) | 38.6 | 53.1 | 43.9 | 28.2 | 53.7 |  |  |  |  |  |  | 
CCOc1ccc(C2Oc3ccccc3-c3ccccc32)cc1 (stereo unspecified) | 35.6 | 32 | 34.9 | 26.4 | 34 |  |  |  |  |  |  | 
CC#C[C@]1(O)CC[C@H]2[C@@H]3CCC4=CC(=O)CCC4=C3[C@@H](c3ccc(N(C)C)cc3)C[C@@]21C [MIFEPRISTONE] |  |  |  |  |  |  |  |  |  | 24 |  | 
COc1ccc2c(c1)-c1ccccc1OC2c1ccc(SC)cc1 (stereo unspecified) | 35.3 | 41.4 | 31.8 | 39.4 | 39.7 |  |  |  |  |  |  | 
COc1ccc2c(c1)-c1ccccc1OC2c1ccc(Cl)cc1 (stereo unspecified) | 32.4 | 35.6 | 36 | 37 | 41.1 |  |  |  |  |  |  | 
